In patent publication EP4417602A1, “SUBSTITUTED PYRAZOLE CARBOXAMIDES, SALTS THEREOF AND THEIR USE AS HERBICIDALLY ACTIVE SUBSTANCES” (Bayer AG, priority 2023, dated 2024):

Assays:
AMARE = assay: B. Herbicidal post-emergence action on harmful plants (Tables B); type: in vivo, Amaranthus retroflexus; conditions: application rate 1280 g/ha; Table B8
Method in brief: (§1)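 Activity was scored visually as % damage (100% = dead, 0% = like untreated) about 3 weeks after treatment. Plants at the one-leaf stage, 2-3 weeks old, were sprayed with WP/EC formulations plus 0.5% additive (600 L/ha water, up to 1280 g/ha). Plants were grown in sandy loam in a greenhouse.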

AVEFA = assay: C. Herbicidal pre-emergence action, weed and crop plants (Tables C); type: in vivo, Avena fatua; conditions: application rate 320 g/ha; Table C4
Excerpt: Seeds of mono- and dicotyledonous weed plants and crop plants were sown, in plastic or organic planting pots, in sandy loam and covered with soil. The compounds according to the invention, formulated in the form of wettable powders (WP) or as emulsifiable concentrates (EC), were applied to the surface of the covering soil as aqueous suspension or emulsion, with the addition of 0.5% of an additive, at an application rate of 6001 of water/ha (converted). Following treatment, the pots were placed in a greenhouse and kept under optimum growth conditions for the test plants. The visual grading of the damage to the test plants was carried out after ca. 3 weeks in comparison to untreated controls (herbicidal effect in percent (%): 100% effect = plants have died off, 0% effect = as control plants). Tables C1 to C12 below show the effects of selected compounds of the general formula (I) according to table 1 on various harmful plants and an application rate corresponding to 320 g/ha or below obtained by the experimental procedure mentioned above. Table C1: pre-emergence activity at 320g/ha against KCHSC in %

VERPE [1] = assay: A. Herbicidal pre-emergence action on harmful plants (Tables A); type: in vivo, Veronica persica; conditions: application rate 1280 g/ha; Table A11
Method in brief: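 Greenhouse pre-emergence test: compound applied to the soil surface at 1280 g/ha or below, and herbicidal effect rated visually at ca. 3 weeks on a 0–100% scale against untreated plants.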

ABUTH = assay: B. Herbicidal post-emergence action on harmful plants (Tables B); type: in vivo, Abutilon theophrasti
Method in brief: as §1

ORYZA = assay: D. Pre-emergence effects on crop plants (Tables D); type: in vivo, Oryza sativa; conditions: crop plant
Excerpt: Seeds of mono- and dicotyledonous weed plants and crop plants were sown, in plastic or organic planting pots, in sandy loam and covered with soil. The compounds according to the invention, formulated in the form of wettable powders (WP) or as emulsifiable concentrates (EC), were applied to the surface of the covering soil as aqueous suspension or emulsion, with the addition of 0.5% of an additive, at an application rate of 6001 of water/ha (converted).
Following treatment, the pots were placed in a greenhouse and kept under optimum growth conditions for the test plants. The visual grading of the damage to the test plants was carried out after ca. 3 weeks in comparison to untreated controls (herbicidal effect in percent (%): 100% effect = plants have died off, 0% effect = as control plants).
Tables D1 to D5 below show the effects of various compounds of the general formula (I) according to Table 1 on various crop plants and an application rate corresponding to 320 g/ha or below obtained by the experimental procedure mentioned above in Biological Examples, Section C. Table D1a: pre-emergence activity at 320g/ha against ZEAMX in %

LOLRI [2] = assay: B. Herbicidal post-emergence action on harmful plants (Tables B); type: in vivo, Lolium rigidum; conditions: application rate 1280 g/ha; Table B3
Description: Seeds of mono- and dicotyledonous weed plants were placed in plastic pots in sandy loam soil (doubly sown with in each case one species of mono- or dicotyledonous weed plants per pot), covered with soil and cultivated in a greenhouse under controlled growth conditions. 2 to 3 weeks after sowing, the test plants were treated at the one-leaf stage. The compounds of the invention, formulated in the form of wettable powders (WP) or as emulsion concentrates (EC), were applied onto the green parts of the plants as aqueous suspension or emulsion with addition of 0.5% additive at a water application rate of 600 liters per hectare (converted). After the test plants had been kept in the greenhouse under optimum growth conditions for about 3 weeks, the activity of the preparations was rated visually in comparison to untreated controls. For example, 100% activity = the plants have died, 0% activity = like control plants. Tables B1 to B12, below, show the effects of selected compounds of the general formula (I) according to table 1 on various harmful plants and an application rate corresponding to 1280 g/ha or below obtained by the experimental procedure mentioned above. Table B1a: post-emergence activity at 1280g/ha against ABUTH in %

STEME = assay: as above; type: in vivo, Stellaria media; conditions: application rate 1280 g/ha; Table B6
Method in brief: as §1

SETVI [3] = assay: as above; type: in vivo, Setaria viridis; conditions: application rate 1280 g/ha; Table B5
Method in brief: as §1

VERPE [4] = assay: as above; type: in vivo, Veronica persica
Method in brief: as §1

LOLRI [5] = assay: E. Herbicidal post-emergence action, weed and crop plants (Tables E); type: in vivo, Lolium rigidum; conditions: application rate 320 g/ha, visual assessment after ca. 3 weeks
Excerpt: (§2) Seeds of mono- and dicotyledonous weed plants and crop plants were sown, in plastic or organic planting pots, in sandy loam, covered with soil and grown in a greenhouse under controlled growth conditions. 2 to 3 weeks after sowing, the test plants were sprayed in the single-leaf stage. The compounds according to the invention, formulated in form of wettable powders (WP) or as emulsifiable concentrates (EC), were sprayed onto the green plant parts as aqueous suspension or emulsion, with the addition of 0.5% of an additive, at an application rate of 6001 of water/ha (converted). The test plants were placed in the greenhouse for ca. 3 weeks under optimum growth conditions, and then the effect of the preparations was assessed visually in comparison with untreated controls (herbicidal effect in percent (%): 100% effect = plants have died off, 0% effect = as control plants). Tables E1 to E7 below show the effects of selected compounds of the general formula (I) according to table 1 on various harmful plants and an application rate corresponding to 320 g/ha or below obtained by the experimental procedure mentioned above. Table E1: post-emergence activity at 320g/ha against ALOMY in %

SETVI [6] = assay: as above; type: in vivo, Setaria viridis; conditions: application rate 320 g/ha, visual assessment after ca. 3 weeks
Excerpt: as §2

[7] = application rate 320 g/ha, treated at the one-leaf stage, rated visually after about 3 weeks vs untreated controls, 100% = the plants have died, 0% = like control plants
[8] = application rate 1280 g/ha, Table B1a
[9] = application rate 80 g/ha, Table D3b
[10] = application rate 320 g/ha, Table D3a
[11] = application rate 1280 g/ha, Table B11a

## COCc1nn(C)cc1C(=O)N1CCCC1Cc1ccccc1F (racemic) [Example I-002]
AMARE
  post-emergence activity against AMARE: 90%
AVEFA
  pre-emergence activity against AVEFA: 80%

## Cn1cc(C(=O)N2CCCC2Cc2ccccc2F)c(COc2ccccc2)n1 (racemic) [Example I-006]
VERPE [1]
  pre-emergence activity against VERPE: 100%
ABUTH; [7]
  post-emergence activity against ABUTH: 90%
ABUTH; [8]
  post-emergence activity against ABUTH: 90%
AMARE
  post-emergence activity against AMARE: 90%
ORYZA; [9]
  pre-emergence activity against ORYZA: 0%
ORYZA; [10]
  pre-emergence activity against ORYZA: 0%

## Cn1cc(C(=O)N2CCCC2Cc2ccc(F)cc2F)c(COc2ccccc2)n1 (racemic) [Example I-008]
ORYZA; [9]
  pre-emergence activity against ORYZA: 0%
ORYZA; [10]
  pre-emergence activity against ORYZA: 0%

## C=C(c1ccccc1F)C1CCCN1C(=O)c1cn(C)nc1COC (racemic) [Example I-023]
LOLRI [2]
  post-emergence activity against LOLRI: 90%

## CNC(=O)n1cc(C(=O)N2CCCC2Cc2ccccc2F)c(COC)n1 (racemic) [Example I-051]
STEME
  post-emergence activity against STEME: 90%

## COCc1c(C(=O)N2CCCC2Cc2ccccc2Cl)cnn1C (racemic) [Example I-170]
LOLRI [2]
  post-emergence activity against LOLRI: 90%
SETVI [3]
  post-emergence activity against SETVI: 90%
VERPE [4]; [11]
  post-emergence activity against VERPE: 90%
LOLRI [5]
  post-emergence activity against LOLRI in %: 80%

## COCc1nn(C)cc1C(=O)N1CCCC1Cc1ccccc1F (single isomer, unassigned) [Example I-003]
ABUTH; [7]
  post-emergence activity against ABUTH: 90%
ABUTH; [8]
  post-emergence activity against ABUTH: 90%
VERPE [4]; application rate 80 g/ha, Table B11c
  post-emergence activity against VERPE: 90%
VERPE [4]; application rate 320 g/ha, Table B11b
  post-emergence activity against VERPE: 90%
VERPE [4]; [11]
  post-emergence activity against VERPE: 90%
AVEFA
  pre-emergence activity against AVEFA: 90%
LOLRI [5]
  post-emergence activity against LOLRI in %: 80%
SETVI [6]
  post-emergence activity against SETVI in %: 80%

## COCc1nn(C)cc1C(=O)N1CCCC1C(O)c1ccccc1F (single isomer, unassigned) [Example I-053]
SETVI [3]
  post-emergence activity against SETVI: 90%
SETVI [6]
  post-emergence activity against SETVI in %: 80%

## COCc1c(C(=O)N2CCCC2Cc2ccccc2F)cnn1C (single isomer, unassigned) [Example I-157]
VERPE [1]
  pre-emergence activity against VERPE: 90%
STEME
  post-emergence activity against STEME: 100%
